Converted amounts (≈) assume the structure as drawn. Read-outs that look alike come from different tables or passages of the source.
Legend:
S. aureus RN4220 [1] = assay: Direct antimicrobial activity of ApoA-I and ApoA-II; assay type: cell-based, Staphylococcus aureus; conditions: up to 300 or 600 µg ml^−1; purified bovine and human proteins
Description: (§1) The antimicrobial activities of the compounds were measured using the microdilution method. Measurement of the bactericidal activity of lysocin E (0.25 µg ml^−1) and nisin (2 µg ml^−1) with or without ApoA-I was performed according to the National Committee for Clinical Laboratory Standards method. […] For the ∆menA and ∆menB strains, TSB medium was used instead of cation-adjusted-Mueller Hinton broth (CA-MHB) in the microdilution method. Sera and ApoA-I, II were added to the bacterial culture before distributing them into 96-well plates. ApoA-I and ApoA-II antimicrobial activity were evaluated using the RN4220 strain. The protein binding rate of lysocin E against human plasma was determined by a rapid equilibrium dialysis device (Thermo Fisher Scientific, Waltham, MA, USA) according to the manufacturer’s instructions.

S. aureus RN4220 [2] = conditions: for MIC, Control / MIC +rhApoA-I relative to control (fold) / MIC, +rhApoA-I 25µg ml-1: RN4220; for MIC, Control: no rhApoA-I; for MIC +rhApoA-I relative to control (fold) / MIC, +rhApoA-I 25µg ml-1: rhApoA-I 25 µg ml-1
Description: as §1

[3] = cited from earlier work
MRSA MR6 strain = assay: Mouse systemic MRSA infection model, survival ED50; assay type: in vivo; conditions: ICR female mice; MRSA MR6 i.p. 5.7 × 10^7 CFU in mucin; s.c. at 1 h and 6 h after infection; survival after 5 days; 5 animals/group; logistic regression
Description: Mouse protocols followed the Regulations for Animal Care and Use of the University of Tokyo under approval by the Graduate School of Pharmaceutical Science at the University of Tokyo (approval nos. 24–55). Mice were housed in a group of at most five in a cage, kept in a room maintained at 23–24 °C, 55% humidity, and 12 h light/12 h dark cycle. For Table 1, clinically isolated MRSA MR6 strain[47] was cultured overnight, suspended in 7% type II porcine stomach mucin supplemented with 0.2 mM FeNH4-citrate and intraperitoneally administered to mice (ICR, female, 4 weeks of age) at 5.7 × 10^7 colony-forming units. Lysocin E (4–0.25 mg kg^−1), vancomycin (8–0.5 mg kg^−1), linezolid (8–0.5 mg kg^−1), or daptomycin (4–0.25 mg kg^−1) were administered subcutaneously to 5 animals/group at 1 h and 6 h after infection. Mouse survival was assessed after 5 days and ED50 values were calculated by multiple logistic regression analysis. For Fig. 1d, the Newman strain was cultured in TSB overnight and cells (4.0 × 10^7 colony-forming units) were washed in phosphate-buffered saline (PBS) were injected into the tail vein of 8–12-week-old female C57BL/6J wild-type mice or Apoa1 homozygous-deficient mice. After 2 h, lysocin E (0.5 mg kg^−1) was administered subcutaneously. After 24 h, the kidneys were harvested and crushed with a BioMasher II (Nippi Incorporated, Tokyo, Japan). The suspensions were diluted with PBS(−), plated on TSB agar medium and the number of colonies was counted.

MRSA = assay: microbe, parasite or virus in culture; conditions: for MIC: Staphylococcus aureus
Description: as §1

S. aureus = assay: Lysocin E antimicrobial activity-enhancing activity (1 unit decreases the MIC of lysocin E to 1 µg ml−1); assay type: cell-based, Staphylococcus aureus; conditions: ApoA species
Description: Calf serum (10 ml) was added to 15 ml EtOH (60% v/v) and the mixture was centrifuged for 15 min. The collected supernatant was evaporated and suspended in 8 ml Milli-Q water (fraction [fr.] II). Fr. II with formic acid (0.1%) was applied to 10 ml of ODS resin (Waters Corporation, Milford, MA, USA). After washing with 25% EtOH and then 50% EtOH, the resin was eluted with 75% EtOH containing 0.1% formic acid. The eluted sample was evaporated and dissolved in 0.8 ml buffer A (10 mM phosphate buffer [pH 7.1], 6 M urea; Fr. III). Fr. III was applied to the Superose 12 10/300 GL gel filtration column (GE Healthcare) and eluted with the AKTApurifier system (GE Healthcare). The elution was performed in buffer A at a flow rate of 0.5 ml min^−1 and 60 fractions (0.5 ml per fr.) were collected in 2-ml tubes. All fractions, except for Fr. I, were dialysed in 10 mM phosphate buffer (pH 7.1) before assessment of their activities. Protein concentrations were measured using Coomassie Plus^TM protein assay reagent (Thermo Fisher) with bovine serum albumin as the standard. Amino acid sequence analysis was performed by in-gel digestion and mass spectrometric analysis. One unit was defined as the activity that decreases the MIC of lysocin E to 1 µg ml^−1.

S. aureus ∆menA strain = assay: MIC by microdilution in TSB; assay type: cell-based, Staphylococcus aureus; conditions: TSB medium; two independent experiments
Description: as §1

S. aureus ∆menB strain = assay: MIC by microdilution in TSB; assay type: cell-based, Staphylococcus aureus; conditions: TSB medium; two independent experiments
Description: as §1

rhApoA-I = target: T1, rhApoA-I (Homo sapiens, UniProt P02647); assay: rhApoA-I pull-down assay (antimicrobial bound to rhApoA-I, UPLC-MS); assay type: binding; design: unit not given here
T1 construct: 1 65 146 160 185 243; made in house; host or cells: E. coli BL21(DE3)/pLysS, pET20b (pET-hApoWT)
T1 sequence (P02647 25-267): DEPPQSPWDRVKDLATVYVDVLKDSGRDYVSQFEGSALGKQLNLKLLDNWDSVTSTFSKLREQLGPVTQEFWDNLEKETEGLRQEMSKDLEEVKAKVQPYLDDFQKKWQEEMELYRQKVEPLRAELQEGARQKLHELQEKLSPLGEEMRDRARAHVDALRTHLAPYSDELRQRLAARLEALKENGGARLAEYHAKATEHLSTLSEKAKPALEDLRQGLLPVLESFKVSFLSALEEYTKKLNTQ
Description: Menaquinone 4 (MK-4; 100 µl of 1.25 mM) was mixed with N-dodecyl β-D-maltoside (250 µl of 100 mM) in the presence or absence of purified lipid II or lipids (300 µl of 70 µM). Lipid II fraction was prepared from S. aureus RN4220 treated with moenomycin, followed by park nucleotide removal. The mixture was dried in vacuo and dissolved in 2 ml of water. The micelles were then filtered through a 0.45-µm polyvinylidene difluoride membrane filter and a 200 µl aliquot of the filtered micelles were used to evaluate the binding of the antimicrobials in the presence of rhApoA-I. Briefly, 5 µg of antimicrobials was added to the aliquots and the mixture was incubated for 15 min on ice in the presence of 4 µg rhApoA-I. The mixture was then transferred to His-Tag magnetic beads (Dynabeads, Thermo Fisher). The bound protein was then eluted with 250 mM imidazole and then eluted antimicrobials were quantified using an ACQUITY ultra-performance liquid chromatography (UPLC) H-Class PLUS attached to Xevo G2-XS QTof system (Waters Corporation). After injecting the sample into a 2.1 × 100 mm Acquity UPLC HSS T3 1.8 μm column (Waters Corporation) equilibrated with 0.3 mL min^–1 of 30% acetonitrile and 0.1% formic acid in water, the column was developed with a linear gradient to 60% acetonitrile and 0.1% formic acid in water over 10 min. The eluate was continuously applied to a Waters Xevo G2-XS QTof mass spectrometer and the spectra were obtained using MassLynx 4.1 (Waters Corporation) in electrospray ionisation (ESI)-positive mode that was analysed by UNIFI Scientific Information System ver. 1.9 (Waters Corporation).

## ApoA-I: purified bovine and human apolipoprotein A-I
S. aureus RN4220 [1]
  Inhibition of S. aureus growth by the protein alone: did not inhibit S. aureus growth

## CN[C@H](CC(C)C)C(=O)N[C@H]1C(=O)N[C@@H](CC(N)=O)C(=O)N[C@H]2C(=O)N[C@H]3C(=O)N[C@H](C(=O)N[C@H](C(=O)O)c4cc(O)cc(O)c4-c4cc3ccc4O)[C@H](O)c3ccc(c(Cl)c3)Oc3cc2cc(c3O[C@@H]2O[C@H](CO)[C@@H](O)[C@H](O)[C@H]2O[C@H]2C[C@](C)(N)[C@H](O)[C@H](C)O2)Oc2ccc(cc2Cl)[C@H]1O [Vancomycin, vancomycin]
S. aureus RN4220 [2]
  MIC, Control: 1 µg/mL (≈ 0.69 µM)
  MIC +rhApoA-I relative to control (fold): 1/1
  MIC, +rhApoA-I 25µg ml-1: 1 µg/mL (≈ 0.69 µM)
[3]; human plasma
  Protein binding (%, human plasma): 10–50[51] %
MRSA MR6 strain
  Therapeutic effect (ED50): 4.2 mg/kg
MRSA; MRSA, 10% bovine serum in medium
  MIC in 10% bovine serum: 1 µg/mL (≈ 0.69 µM)
MRSA; MRSA, microdilution, no serum
  Antimicrobial activity (MIC): 1 µg/mL

## hApoA-II: purified human ApoA-II (Calbiochem)
S. aureus
  Specific activity for lysocin E antimicrobial enhancing activity: 5900 unit mg-1 protein

## ApoA-II: purified bovine and human apolipoprotein A-II
S. aureus RN4220 [1]
  Inhibition of S. aureus growth by the protein alone: did not inhibit S. aureus growth

## rhApoA-I: recombinant human ApoA-I
S. aureus
  Specific activity for lysocin E antimicrobial enhancing activity: 6500 unit mg-1 protein

## nisin (ITSISLCTPGCKTGALMGCNMKTATCHCSIHVSK)
S. aureus RN4220 [2]
  MIC, Control: 8 µg/mL
  MIC +rhApoA-I relative to control (fold): 1/4
  MIC, +rhApoA-I 25µg ml-1: 2 µg/mL
S. aureus RN4220 [2]; with lipid II 25 µg ml-1
  MIC, Control: > 32 µg/mL
  MIC, +rhApoA-I 25µg ml-1: > 32 µg/mL
S. aureus RN4220 [2]; wild-type RN4220, TSB medium, two independent experiments
  Antimicrobial activity (MIC), WT: 16
S. aureus ∆menA strain
  Antimicrobial activity (MIC), ∆menA: 16
S. aureus ∆menB strain
  Antimicrobial activity (MIC), ∆menB: 16
rhApoA-I; CL, replicate 1
  Nisin binding to rhApoA-I (pull-down): 0.284
rhApoA-I; CL, replicate 2
  Nisin binding to rhApoA-I (pull-down): 0.1757
rhApoA-I; CL, replicate 3
  Nisin binding to rhApoA-I (pull-down): 0.257
rhApoA-I; LTA, replicate 1
  Nisin binding to rhApoA-I (pull-down): 0.1611
rhApoA-I; LTA, replicate 2
  Nisin binding to rhApoA-I (pull-down): 0.2119
rhApoA-I; LTA, replicate 3
  Nisin binding to rhApoA-I (pull-down): 0.3298
rhApoA-I; Lipid II, replicate 1
  Nisin binding to rhApoA-I (pull-down): 1.947
rhApoA-I; Lipid II, replicate 2
  Nisin binding to rhApoA-I (pull-down): 4.556
rhApoA-I; Lipid II, replicate 3
  Nisin binding to rhApoA-I (pull-down): 3.824
rhApoA-I; PG, replicate 1
  Nisin binding to rhApoA-I (pull-down): 0.4181
rhApoA-I; PG, replicate 2
  Nisin binding to rhApoA-I (pull-down): 0.2568
rhApoA-I; PG, replicate 3
  Nisin binding to rhApoA-I (pull-down): 0.2266
rhApoA-I; Vehicle (no lipid added), replicate 1
  Nisin binding to rhApoA-I (pull-down): 0.2456
rhApoA-I; Vehicle (no lipid added), replicate 2
  Nisin binding to rhApoA-I (pull-down): 0.223
rhApoA-I; Vehicle (no lipid added), replicate 3
  Nisin binding to rhApoA-I (pull-down): 0.2718

## CC(=O)NC[C@H]1CN(c2ccc(N3CCOCC3)c(F)c2)C(=O)O1 [Linezolid, linezolid]
[3]; human
  Protein binding (%, human plasma): 18[52] %
MRSA MR6 strain
  Therapeutic effect (ED50): 3.8 mg/kg
MRSA; MRSA, read-out: Antimicrobial activity (MIC)
  MIC: 2 µg/mL (≈ 5.93 µM)
MRSA; MRSA, read-out: MIC in 10% bovine serum
  MIC: 2 µg/mL (≈ 5.93 µM)

## CCCCCCCCCC(=O)N[C@@H](Cc1c[nH]c2ccccc12)C(=O)N[C@H](CC(N)=O)C(=O)N[C@@H](CC(=O)O)C(=O)N[C@@H]1C(=O)NCC(=O)N[C@@H](CCCN)C(=O)N[C@@H](CC(=O)O)C(=O)N[C@H](C)C(=O)N[C@@H](CC(=O)O)C(=O)NCC(=O)N[C@H](CO)C(=O)N[C@@H]([C@H](C)CC(=O)O)C(=O)N[C@@H](CC(=O)c2ccccc2N)C(=O)O[C@@H]1C [Daptomycin, daptomycin]
S. aureus RN4220 [2]
  MIC, Control: 0.5 µg/mL (≈ 0.309 µM)
  MIC +rhApoA-I relative to control (fold): 1/1
  MIC, +rhApoA-I 25µg ml-1: 0.5 µg/mL (≈ 0.309 µM)
[3]; human plasma
  Protein binding (%, human plasma): 90–96[52] %
MRSA MR6 strain
  Therapeutic effect (ED50): 0.73 mg/kg
MRSA
  Antimicrobial activity (MIC): 0.5 µg/mL
  MIC in 10% bovine serum: 1 µg/mL (≈ 0.617 µM)

Source: PMC8568920, “Serum apolipoprotein A-I potentiates the therapeutic efficacy of lysocin E against Staphylococcus aureus” (Nature Communications, 2021)
